# Values of other authors, collected in patent US6448244B1, “Water soluble azoles as broad-spectrum antifungals” (Janssen Pharmaceutica N.V., priority 1998, dated 2002).
# Conditions: Saksena et al., Bioorg. Med. Chem. Lett. (1995), 5(2), 127-132
structure (smiles),measurement,value
"CN(C)CCn1ncn(-c2ccc(N3CCN(c4ccc(OC[C@@H]5CO[C@@](Cn6cncn6)(c6ccc(F)cc6F)C5)cc4)CC3)cc2)c1=O (relative stereo) [(3R-cis)-4-[4-[4-[4-[[5-(2,4-difluorophenyl)tetrahydro-5-(1H-1,2,4-triazol-1-ylmethyl)-3-furanyl]methoxy]phenyl]-1-piperazinyl]phenyl]-2-[2-(dimethylamino)ethyl]-2,4-dihydro-3H-1,2,4-triazol-3-one]",antifungal activity compared to SCH 51048,profoundly less active
